Bridge positions count the residues as written; N and C are the ends. Square brackets hold non-standard residues; d marks the D form. Ends that are not written are not given here. Peptide text beside a SMILES is read from it. 1Nal = N[C@@H](Cc1cccc2ccccc12)C(=O)O
Tests used:
[1] = tested on: thapsigargin-induced IFN-g production in human whole blood; format: cell-based; details: read-out: Analogue Activity (IC50) WB/IFNg
[2] = tested on: thapsigargin-induced IL-2 production in human whole blood; details: for IC50: read-out: Analogue Activity (IC50) WB/IL-2

Molecule | IC50 [1] | IC50 [2] | blockade of the whole blood cytokine response, IL-2 and IFNg [2]
CC[C@H](C)[C@@H]1NC(=O)[C@H](CCCCN)NC(=O)[C@@H](NC(=O)[C@H](CCCCN)NC(=O)[C@@H](NC(=O)[C@H](CC(N)=O)NC(=O)[C@@H](NC(=O)[C@@H](NC(=O)[C@@H](NC(=O)CN)C(C)C)[C@@H](C)CC)[C@@H](C)CC)C(C)C)CSSC[C@@H]2NC(=O)[C@H](CCCCN)NC(=O)CNC(=O)[C@H](Cc3ccccc3)NC(=O)[C@H](CCCNC(=N)N)NC(=O)[C@H](CCSC)NC(=O)CNC(=O)[C@H](CCC(=O)O)NC(=O)[C@H](CCCCN)NC(=O)[C@H](CCCCN)NC(=O)[C@@H]3CSSC[C@@H](C(=O)N[C@H](C(=O)N4CCC[C@H]4C(=O)N[C@@H](CCCCN)C(=O)O)[C@@H](C)O)NC(=O)[C@H](Cc4c[nH]cn4)NC(=O)[C@H](CSSC[C@H](NC(=O)[C@H](CCC(N)=O)NC(=O)[C@H](CCCNC(=N)N)NC(=O)[C@H](CO)NC1=O)C(=O)N[C@@H](CC(C)C)C(=O)N[C@@H](CCC(=O)O)C(=O)N1CCC[C@H]1C(=O)N3)NC(=O)[C@H](CCCCN)NC(=O)CNC(=O)[C@H](CC(N)=O)NC(=O)[C@H](CCSC)NC2=O [A21E] (H-GVIINVKCKISRQCLEPCKKEGMRFGKCMNGKCHCTPK-OH; disulfide 8-28, 14-33, 18-35) | 138 pM | 117 pM | –
CC[C@H](C)[C@@H]1NC(=O)[C@H](CCCCN)NC(=O)[C@@H](NC(=O)[C@H](CCCCN)NC(=O)[C@@H](NC(=O)[C@H](CC(N)=O)NC(=O)[C@@H](NC(=O)[C@@H](NC(=O)[C@@H](NC(=O)CN)C(C)C)[C@@H](C)CC)[C@@H](C)CC)C(C)C)CSSC[C@@H]2NC(=O)[C@H](CCCCN)NC(=O)CNC(=O)[C@H](Cc3ccccc3)NC(=O)[C@H](CCCNC(=N)N)NC(=O)[C@H](CCSC)NC(=O)CNC(=O)[C@H](CCCNC(=N)N)NC(=O)[C@H](CCCCN)NC(=O)[C@H](CCCCN)NC(=O)[C@@H]3CSSC[C@@H](C(=O)N[C@H](C(=O)N4CCC[C@H]4C(=O)N[C@@H](CCCCN)C(=O)O)[C@@H](C)O)NC(=O)[C@H](Cc4c[nH]cn4)NC(=O)[C@H](CSSC[C@H](NC(=O)[C@H](CCC(N)=O)NC(=O)[C@H](CCCNC(=N)N)NC(=O)[C@H](CO)NC1=O)C(=O)N[C@@H](CC(C)C)C(=O)N[C@@H](CCC(=O)O)C(=O)N1CCC[C@H]1C(=O)N3)NC(=O)[C@H](CCCCN)NC(=O)CNC(=O)[C@H](CC(N)=O)NC(=O)[C@H](CCSC)NC2=O [A21R] (H-GVIINVKCKISRQCLEPCKKRGMRFGKCMNGKCHCTPK-OH; disulfide 8-28, 14-33, 18-35) | 149 pM | 90 pM | –
CC[C@H](C)[C@@H]1NC(=O)[C@H](CCCCN)NC(=O)[C@@H](NC(=O)[C@H](CCCCN)NC(=O)[C@@H](NC(=O)[C@H](CC(N)=O)NC(=O)[C@@H](NC(=O)[C@@H](NC(=O)[C@@H](NC(=O)CN)C(C)C)[C@@H](C)CC)[C@@H](C)CC)C(C)C)CSSC[C@@H]2NC(=O)[C@H](CCCCN)NC(=O)CNC(=O)[C@H](Cc3ccccc3)NC(=O)[C@H](CCCNC(=N)N)NC(=O)[C@H](CCSC)NC(=O)CNC(=O)[C@H](C)NC(=O)[C@H](CCCCN)NC(=O)[C@H](CCCCN)NC(=O)[C@@H]3CSSC[C@@H](C(=O)N[C@H](C(=O)N4CCC[C@H]4C(=O)N[C@@H](CCCCN)C(=O)O)[C@@H](C)O)NC(=O)[C@H](Cc4c[nH]cn4)NC(=O)[C@H](CSSC[C@H](NC(=O)[C@H](CCC(N)=O)NC(=O)[C@H](CCCNC(=N)N)NC(=O)[C@H](CO)NC1=O)C(=O)N[C@@H](CC(C)C)C(=O)N[C@@H](C)C(=O)N1CCC[C@H]1C(=O)N3)NC(=O)[C@H](CCCCN)NC(=O)CNC(=O)[C@H](CC(N)=O)NC(=O)[C@H](CCSC)NC2=O [E16A] (H-GVIINVKCKISRQCLAPCKKAGMRFGKCMNGKCHCTPK-OH; disulfide 8-28, 14-33, 18-35) | 101 pM | 101 pM | –
CC[C@H](C)[C@@H]1NC(=O)[C@H](CCCCN)NC(=O)[C@@H](NC(=O)[C@H](CCCCN)NC(=O)[C@@H](NC(=O)[C@H](CC(N)=O)NC(=O)[C@@H](NC(=O)[C@@H](NC(=O)[C@@H](NC(=O)CN)C(C)C)[C@@H](C)CC)[C@@H](C)CC)C(C)C)CSSC[C@@H]2NC(=O)[C@H](CCCCN)NC(=O)CNC(=O)[C@H](Cc3ccccc3)NC(=O)[C@H](CCCNC(=N)N)NC(=O)[C@H](CCSC)NC(=O)CNC(=O)[C@H](C)NC(=O)[C@H](CCCCN)NC(=O)[C@H](CCCCN)NC(=O)[C@@H]3CSSC[C@@H](C(=O)N[C@H](C(=O)N4CCC[C@H]4C(=O)N[C@@H](CCCCN)C(=O)O)[C@@H](C)O)NC(=O)[C@H](Cc4c[nH]cn4)NC(=O)[C@H](CSSC[C@H](NC(=O)[C@H](Cc4cccc5ccccc45)NC(=O)[C@H](CCCNC(=N)N)NC(=O)[C@H](CO)NC1=O)C(=O)N[C@@H](CC(C)C)C(=O)N[C@@H](CCC(=O)O)C(=O)N1CCC[C@H]1C(=O)N3)NC(=O)[C@H](CCCCN)NC(=O)CNC(=O)[C@H](CC(N)=O)NC(=O)[C@H](CCSC)NC2=O [Q13Nal] (H-GVIINVKCKISR[1Nal]CLEPCKKAGMRFGKCMNGKCHCTPK-OH; disulfide 8-28, 14-33, 18-35) | – | 140 pM | –
SEQ ID No: 4989: OSK1 analog without beta strand 1 (labeled des 1-7), Table 42 (CKISRQCLKPCKDAGMRFGKCMNGKCHC-NH2; ends and bridges not checked) | – | – | retain activity in blocking inflammation
FcLoop-L2-ShK-L2: ShK inserted into the human IgG1 Fc-loop domain with 2-Gly linkers (protein, Definition of Artificial Sequence: Synthetic protein) MDKTHTCPPCPAPELLGGPSVFLFPPKPKDTLMISRTPEVTCVVVDVSHEDPEVKFNWYVDGVEVHNAKTKPREEQYNSTYRVVSVLTVLHQDWLNGKEYKCKVSNKALPAPIEKTISKAKGQPREPQVYTLPPSRDELGGRSCIDTIPKSRCTAFQCKHSMKYRLSFCRKTCGTCGGTKNQVSLTCLVKGFYPSDIAVEWESNGQPENNYKTTPPVLDSDGSFFLYSKLTVDKSRWQQGNVFSCSVMHEALHNHYTQKSLSLSPGK | – | – | potent blockade
FcLoop-L2-OsK1-L2: OsK1 inserted into the human IgG1 Fc-loop domain with 2-Gly linkers on either side (protein, Definition of Artificial Sequence: Synthetic protein) MDKTHTCPPCPAPELLGGPSVFLFPPKPKDTLMISRTPEVTCVVVDVSHEDPEVKFNWYVDGVEVHNAKTKPREEQYNSTYRVVSVLTVLHQDWLNGKEYKCKVSNKALPAPIEKTISKAKGQPREPQVYTLPPSRDELGGGVIINVKCKISRQCLEPCKKAGMRFGKCMNGKCHCTPKGGTKNQVSLTCLVKGFYPSDIAVEWESNGQPENNYKTTPPVLDSDGSFFLYSKLTVDKSRWQQGNVFSCSVMHEALHNHYTQKSLSLSPGK | – | – | potent blockade

Reference: US7820623B2 (priority 2006, dated 2010)
